From publication doi:10.1101/2023.03.24.534094v2 (biorxiv, 2023)
Read-outs that look alike come from different tables or passages of the source. Each block holds one molecule with its values, some of them ahead of it.

What was measured:
Assay in all cases: biochemical
AurA = target: T1, AurA (Homo sapiens, UniProt O14965)
T1 sequence (O14965 1-403): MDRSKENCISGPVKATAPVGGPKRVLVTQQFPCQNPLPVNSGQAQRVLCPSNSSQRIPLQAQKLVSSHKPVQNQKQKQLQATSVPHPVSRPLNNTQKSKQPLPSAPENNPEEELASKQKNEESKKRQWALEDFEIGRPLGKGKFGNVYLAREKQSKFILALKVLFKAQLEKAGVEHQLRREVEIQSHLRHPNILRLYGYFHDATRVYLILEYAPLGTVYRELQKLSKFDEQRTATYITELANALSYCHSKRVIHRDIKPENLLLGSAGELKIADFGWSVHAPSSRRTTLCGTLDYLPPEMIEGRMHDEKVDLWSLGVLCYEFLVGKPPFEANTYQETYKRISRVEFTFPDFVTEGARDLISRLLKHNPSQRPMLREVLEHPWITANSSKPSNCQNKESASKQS

BRD4 = BRD4 (Homo sapiens, UniProt O60885)
DYRK2 = target: T2, DYRK2 (Homo sapiens, UniProt Q92630)
T2 sequence (Q92630 1-601): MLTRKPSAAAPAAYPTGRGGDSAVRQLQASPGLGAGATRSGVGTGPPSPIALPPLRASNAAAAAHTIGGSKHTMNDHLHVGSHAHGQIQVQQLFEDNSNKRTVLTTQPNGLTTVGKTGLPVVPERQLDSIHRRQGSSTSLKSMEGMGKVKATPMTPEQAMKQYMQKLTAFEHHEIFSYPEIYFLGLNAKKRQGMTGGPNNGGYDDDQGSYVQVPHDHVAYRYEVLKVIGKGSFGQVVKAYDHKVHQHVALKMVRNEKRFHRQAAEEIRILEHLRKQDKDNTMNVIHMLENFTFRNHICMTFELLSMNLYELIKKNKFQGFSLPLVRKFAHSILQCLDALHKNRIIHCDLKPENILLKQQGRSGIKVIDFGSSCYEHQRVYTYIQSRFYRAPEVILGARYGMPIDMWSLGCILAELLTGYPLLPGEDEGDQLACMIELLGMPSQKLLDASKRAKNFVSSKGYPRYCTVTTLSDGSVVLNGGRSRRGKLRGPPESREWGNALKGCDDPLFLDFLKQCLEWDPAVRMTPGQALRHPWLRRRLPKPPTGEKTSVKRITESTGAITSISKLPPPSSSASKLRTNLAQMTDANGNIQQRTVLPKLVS

FGFR2 = FGFR2 (Homo sapiens, UniProt P21802)
FGFR2, sequence (P21802 whole entry): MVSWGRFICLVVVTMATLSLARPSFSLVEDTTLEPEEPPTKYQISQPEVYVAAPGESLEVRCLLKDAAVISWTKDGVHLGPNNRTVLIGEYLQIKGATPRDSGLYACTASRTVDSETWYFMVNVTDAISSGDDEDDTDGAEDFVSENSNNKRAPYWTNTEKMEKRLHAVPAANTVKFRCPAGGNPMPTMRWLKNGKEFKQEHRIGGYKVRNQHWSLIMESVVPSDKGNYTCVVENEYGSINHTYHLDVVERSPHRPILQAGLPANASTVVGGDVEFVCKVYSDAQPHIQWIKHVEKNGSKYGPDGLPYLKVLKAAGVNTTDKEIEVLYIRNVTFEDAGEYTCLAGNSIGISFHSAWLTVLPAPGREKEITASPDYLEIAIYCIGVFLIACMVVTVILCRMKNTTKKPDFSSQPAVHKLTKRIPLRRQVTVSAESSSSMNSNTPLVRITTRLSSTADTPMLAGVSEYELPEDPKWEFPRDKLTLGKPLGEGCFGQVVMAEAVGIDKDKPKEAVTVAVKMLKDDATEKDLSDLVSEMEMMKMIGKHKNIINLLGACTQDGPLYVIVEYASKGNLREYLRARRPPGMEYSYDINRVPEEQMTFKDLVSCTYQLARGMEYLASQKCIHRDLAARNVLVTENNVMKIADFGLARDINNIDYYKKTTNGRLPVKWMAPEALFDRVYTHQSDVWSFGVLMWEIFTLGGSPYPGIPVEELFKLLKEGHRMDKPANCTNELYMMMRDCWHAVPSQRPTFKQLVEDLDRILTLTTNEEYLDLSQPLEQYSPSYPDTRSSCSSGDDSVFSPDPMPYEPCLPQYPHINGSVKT

MAP2K6 = target: T3, MAP2K6 (Homo sapiens, UniProt P52564)
T3 sequence (P52564 1-334): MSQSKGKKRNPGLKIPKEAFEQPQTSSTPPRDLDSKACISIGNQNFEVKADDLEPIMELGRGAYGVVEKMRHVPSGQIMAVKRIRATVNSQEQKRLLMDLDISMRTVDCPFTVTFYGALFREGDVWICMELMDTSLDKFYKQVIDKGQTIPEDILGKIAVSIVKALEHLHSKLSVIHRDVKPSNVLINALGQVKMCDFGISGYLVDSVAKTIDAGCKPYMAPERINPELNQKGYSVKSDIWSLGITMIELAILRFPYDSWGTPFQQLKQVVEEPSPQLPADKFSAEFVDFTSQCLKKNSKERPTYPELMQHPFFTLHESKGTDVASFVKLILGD

NQO2A = target: T4, NQO2A (Homo sapiens, UniProt P16083)
T4 sequence (P16083 1-231): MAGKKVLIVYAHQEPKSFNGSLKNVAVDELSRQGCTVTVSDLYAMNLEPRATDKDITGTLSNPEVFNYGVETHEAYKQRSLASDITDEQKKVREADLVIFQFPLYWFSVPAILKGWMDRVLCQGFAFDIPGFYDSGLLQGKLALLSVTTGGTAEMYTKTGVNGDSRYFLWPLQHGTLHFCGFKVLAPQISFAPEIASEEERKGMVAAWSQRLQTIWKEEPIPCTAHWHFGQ

PLK4 = target: T5, PLK4 (Homo sapiens, UniProt O00444)
T5 sequence (O00444 1-970): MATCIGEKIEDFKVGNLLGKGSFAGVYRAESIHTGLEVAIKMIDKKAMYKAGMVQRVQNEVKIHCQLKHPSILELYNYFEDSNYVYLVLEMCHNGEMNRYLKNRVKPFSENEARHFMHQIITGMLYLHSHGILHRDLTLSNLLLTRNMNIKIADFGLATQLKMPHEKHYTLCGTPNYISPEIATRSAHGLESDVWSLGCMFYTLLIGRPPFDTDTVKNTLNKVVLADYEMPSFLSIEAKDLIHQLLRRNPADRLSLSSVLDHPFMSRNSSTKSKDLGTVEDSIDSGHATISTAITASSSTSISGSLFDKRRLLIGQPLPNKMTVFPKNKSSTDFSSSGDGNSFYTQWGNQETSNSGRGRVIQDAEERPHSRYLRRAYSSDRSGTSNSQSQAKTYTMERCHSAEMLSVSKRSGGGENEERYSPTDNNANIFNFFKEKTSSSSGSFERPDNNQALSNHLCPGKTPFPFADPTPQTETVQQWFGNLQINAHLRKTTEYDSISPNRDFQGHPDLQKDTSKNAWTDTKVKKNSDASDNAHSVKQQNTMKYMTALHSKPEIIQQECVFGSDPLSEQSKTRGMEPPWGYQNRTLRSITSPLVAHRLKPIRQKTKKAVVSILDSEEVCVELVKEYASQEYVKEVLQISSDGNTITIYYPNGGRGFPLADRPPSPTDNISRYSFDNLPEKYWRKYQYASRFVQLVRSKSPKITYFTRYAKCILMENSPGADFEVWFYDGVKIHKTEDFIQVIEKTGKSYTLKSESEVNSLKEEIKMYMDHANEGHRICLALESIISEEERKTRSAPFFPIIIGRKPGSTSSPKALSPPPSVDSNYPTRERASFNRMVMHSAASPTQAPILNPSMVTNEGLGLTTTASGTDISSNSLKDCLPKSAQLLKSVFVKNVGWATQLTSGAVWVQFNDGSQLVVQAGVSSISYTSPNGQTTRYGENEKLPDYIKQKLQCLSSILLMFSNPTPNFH

- ΔTm at 10 µM (AurA; read-out: dTm 8): 1.9 °C
- ΔTm at 10 µM (BRD4; read-out: dTm 8): 1.3 °C
- ΔTm at 10 µM (DYRK2; read-out: dTm 8): 0.1 °C
- ΔTm at 10 µM (FGFR2; read-out: dTm 8): 4.1 °C
- ΔTm at 10 µM (MAP2K6; read-out: dTm 8): 1.3 °C
- ΔTm at 10 µM (NQO2A; read-out: dTm 8): 0.5 °C
- ΔTm at 10 µM (PLK4; read-out: dTm 8): 0.5 °C
SMILES: CNc1ncc2cc(-c3cc(Cl)ccc3Cl)c(=O)n(CCCCN)c2n1 [compound 8, 8-(4-Aminobutyl)-6-(2,5-dichlorophenyl)-2-(methylamino)pyrido[2,3-d]pyrimidin-7(8H)-one]

- ΔTm at 10 µM (AurA; read-out: dTm 10): 2 °C
- ΔTm at 10 µM (BRD4; read-out: dTm 10): 1.2 °C
- ΔTm at 10 µM (DYRK2; read-out: dTm 10): 0 °C
- ΔTm at 10 µM (FGFR2; read-out: dTm 10): 3.3 °C
- ΔTm at 10 µM (MAP2K6; read-out: dTm 10): 1.5 °C
- ΔTm at 10 µM (NQO2A; read-out: dTm 10): 0.6 °C
- ΔTm at 10 µM (PLK4; read-out: dTm 10): 0.4 °C
SMILES: CNc1ncc2cc(-c3cc(Cl)ccc3Br)c(=O)n(CCCCN)c2n1 [compound 10, 8-(4-Aminobutyl)-6-(2-bromo-5-chlorophenyl)-2-(methylamino)pyrido[2,3-d]pyrimidin-7(8H)-one]

The next lines start with the molecule.

SMILES: CNc1ncc2cc(-c3cc(C(F)(F)F)ccc3Cl)c(=O)n(CCCCN)c2n1 [compound 9, 8-(4-Aminobutyl)-6-(2-chloro-5-(trifluoromethyl)phenyl)-2-(methylamino)pyrido[2,3-d]pyrimidin-7(8H)-one]
- ΔTm at 10 µM (AurA; read-out: dTm 9): 1.3 °C
- ΔTm at 10 µM (BRD4; read-out: dTm 9): 0.7 °C
- ΔTm at 10 µM (DYRK2; read-out: dTm 9): 0 °C
- ΔTm at 10 µM (FGFR2; read-out: dTm 9): 2.1 °C
- ΔTm at 10 µM (MAP2K6; read-out: dTm 9): 0.8 °C
- ΔTm at 10 µM (NQO2A; read-out: dTm 9): -0.3 °C
- ΔTm at 10 µM (PLK4; read-out: dTm 9): 0.3 °C

SMILES: CNc1ncc2cc(-c3cc(Br)ccc3Br)c(=O)n(CCCCN)c2n1 [compound 11, 8-(4-Aminobutyl)-6-(2,5-dibromophenyl)-2-(methylamino)pyrido[2,3-d]pyrimidin-7(8H)-one]
- ΔTm at 10 µM (AurA; read-out: dTm 11): 1.9 °C
- ΔTm at 10 µM (BRD4; read-out: dTm 11): 1 °C
- ΔTm at 10 µM (DYRK2; read-out: dTm 11): 0 °C
- ΔTm at 10 µM (FGFR2; read-out: dTm 11): 3.4 °C
- ΔTm at 10 µM (MAP2K6; read-out: dTm 11): 1.6 °C
- ΔTm at 10 µM (NQO2A; read-out: dTm 11): 0.3 °C
- ΔTm at 10 µM (PLK4; read-out: dTm 11): 0.6 °C

SMILES: CNc1ncc2cc(-c3cc(F)c(-c4cccc(C)n4)cc3F)c(=O)n(CCCCN)c2n1 [compound 12, 8-(4-Aminobutyl)-6-(2,5-difluoro-4-(6-methylpyridin-2-yl)phenyl)-2-(methylamino)pyrido[2,3-d]pyrimidin-7(8H)-one]
- ΔTm at 10 µM (AurA; read-out: dTm 12): -2.4 °C
- ΔTm at 10 µM (BRD4; read-out: dTm 12): -2 °C
- ΔTm at 10 µM (DYRK2; read-out: dTm 12): -0.2 °C
- ΔTm at 10 µM (FGFR2; read-out: dTm 12): 1.1 °C
- ΔTm at 10 µM (MAP2K6; read-out: dTm 12): 3.8 °C
- ΔTm at 10 µM (NQO2A; read-out: dTm 12): 0.2 °C
- ΔTm at 10 µM (PLK4; read-out: dTm 12): 6.3 °C
